The record followed here is patent publication US11149035B2, “Chemical compounds as H—PGDS inhibitors” (GlaxoSmithKline Intellectual Property Development Limited, priority 2017, dated 2021).

The experiment concerns the target T1, haematopoietic prostaglandin D synthase (H-PGDS) (Homo sapiens, UniProt O60760).
T1 construct: Full length human H-PGDS cDNA (Invitrogen Ultimate ORF IOH13026) was amplified by PCR; 6-His (N); TEV protease cleavage site (N); made in house; host or cells: E. coli BL21 (DE3*)
Kind of experiment: H-PGDS RapidFire high throughput mass spectrometry assay (conversion of PGH2 to PGD2). The format is biochemical. Conditions: 10 nM H-PGDS, PGH2 formed in situ by COX-2 from arachidonic acid; four parameter curve fit; read-out: Potency Range (mean pIC50) (converted). Summed up: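 His-tagged full-length human H-PGDS from E. coli converts PGH2, generated in situ at ~10 μM from arachidonic acid by FLAG-tagged human COX-2 from Sf9 cells. RapidFire SPE-triple quadrupole MS measures PGD2 against PGF2α as substrate surrogate; percent conversion is calculated.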

T1 sequence (O60760 whole entry): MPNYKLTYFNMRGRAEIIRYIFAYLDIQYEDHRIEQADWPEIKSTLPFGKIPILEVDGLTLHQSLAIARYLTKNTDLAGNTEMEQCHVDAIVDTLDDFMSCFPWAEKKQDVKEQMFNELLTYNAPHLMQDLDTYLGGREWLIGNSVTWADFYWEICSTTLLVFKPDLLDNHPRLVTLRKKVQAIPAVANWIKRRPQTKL

As for `CC(C)(O)[C@H]1CC[C@H](NC(=O)c2cnc3nc(C4CC4)ccc3c2)CC1` [Example 21, 7-Cyclopropyl-N-((trans)-4-(2-hydroxypropan-2-yl)cyclohexyl)-1,8-naphthyridine-3-carboxamide], the IC50 is less than 10 nM.
